pIC50: −log10 of the molar value. Some results are limits rather than exact numbers.

A word on the pIC50: it is the negative decadic logarithm of the IC50, by convention in mol/L.

Chain of Human Factor D (P00746 26-253): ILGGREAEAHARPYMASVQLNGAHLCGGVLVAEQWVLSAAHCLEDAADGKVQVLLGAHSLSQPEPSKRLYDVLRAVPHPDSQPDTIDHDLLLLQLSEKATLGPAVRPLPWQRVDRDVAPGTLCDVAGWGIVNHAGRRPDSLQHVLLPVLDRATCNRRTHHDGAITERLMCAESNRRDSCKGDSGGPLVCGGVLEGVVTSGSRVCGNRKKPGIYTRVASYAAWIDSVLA

The assay addresses Human Factor D (Homo sapiens (Human), UniProt P00746). Kind of assay: Human Factor D Assay. The conditions noted are these: Human Factor D 80 nM, substrate Z-L-Lys-SBzl, assay according to Example 3. In kind it is biochemical. On the procedure:
The assay according to Example 3 was used to determine the IC50's of the compounds. Other standard factor D inhibition assays are also available.
Human Factor D (purified from human serum, Complement Technology, Inc.) at 80 nM final concentration is incubated with test compound at various concentrations for 5 min at room temperature in 50 mM Tris, 1M NaCl, pH 7.5. A synthetic substrate Z-L-Lys-SBzl and DTNB (Ellman's reagent) are added to final concentrations of 100 μM each. Absorbance at 405 nm (A405) is recorded at 30 second intervals for 30 min using a microplate spectrophotometer. IC50 values are calculated by nonlinear regression of complement Factor D reaction rates as a function of test compound concentration.
As to `CC(=O)c1cn(CC(=O)N2C[C@@](F)(CF)C[C@H]2C(=O)Nc2nc(C(F)(F)F)ccc2C)c2c(C)cc(-c3ccc4nc(C)nn4c3)cc12` [Compound 11, (2S,4R)-1-(2-(3-acetyl-7-methyl-5-(2-methyl-[1,2,4]triazolo[1,5-a]pyr-idin-6-yl)-1H-indol-1-yl)-acetyl)-4-fluoro-4-(fluoro-methyl)-N-(3-methyl-6-(trifluoromethyl)pyridin-2-yl)pyrrolidine-2-carbox-amide], the negative logarithm of the IC50 (pIC50) is greater than 6.00. For `CC(=O)c1cn(CC(=O)N2[C@H](C(=O)Nc3nc(C(F)(F)F)cc(F)c3C)C[C@@]3(C)C[C@@H]23)c2c(C)cc(-c3cnc4cc(C)nn4c3)cc12` [Compound 12, (1R,3S,5R)-2-(2-(3-acetyl-7-methyl-5-(2-methylpyr-azolo[1,5-a]pyrimidin-6-yl)-1H-indol-1-yl)acetyl)-N-(4-fluoro-3-methyl-6-(trifluoromethyl)pyridin-2-yl)-5-methyl-2-azabicyclo [3.1.0]hexane-3-carbox-amide], the pIC50 was greater than 6.00. `CC(=O)c1cn(CC(=O)N2[C@H](C(=O)Nc3nc(C(F)(F)F)ccc3C)C[C@@]3(C)C[C@@H]23)c2c(C)cc(-c3cnc4cc(C#N)nn4c3)cc12` [Compound 13, (1R,3S,5R)-2-(2-(3-acetyl-5-(2-cyanopyrazolo[1,5-a]pyrimidin-6-yl)-7-methyl-1H-indol-1-yl)acetyl)-5-methyl-N-(3-methyl-6-(trifluoromethyl)pyridin-2-yl)-2-azabicyclo[3.1.0] hexane-3-carboxamide] had a pIC50 greater than 6.00.

Compound `CC(=O)c1cn(CC(=O)N2[C@H](C(=O)Nc3nc(C(F)(F)F)ccc3C#N)C[C@@]3(C)C[C@@H]23)c2c(C)cc(-c3cnc4cc(C)nn4c3)cc12` [Compound 14, (1R,3S,5R)-2-(2-(3-acetyl-7-methyl-5-(2-methylpyr-azolo[1,5-a]pyrimidin-6-yl)-1H-indol-1-yl)acetyl)-N-(3-cyano-6-(trifluoro-methyl)pyridin-2-yl)-5-methyl-2-azabicyclo[3.1.0] hexane-3-carboxamide] gave a pIC50 greater than 6.00. To `CC(=O)c1cn(CC(=O)N2[C@H](C(=O)Nc3nc(Br)cc(F)c3C)C[C@@]3(C)C[C@@H]23)c2c(C)cc(-c3cnc(C)nc3)cc12` [Compound 15, (1R,3S,5R)-2-(2-(3-acetyl-7-methyl-5-(2-methylpyr-imidin-5-yl)-1H-indol-1-yl)acetyl)-N-(6-bromo-4-fluoro-3-methylpyridin-2-yl)-5-methyl-2-azabicyclo [3.1.0]hexane-3-carbox-amide] belongs greater than 6.00; to `CC(=O)c1cn(CC(=O)N2[C@H](C(=O)Nc3nc(C(F)(F)F)c(F)cc3C)C[C@@]3(C)C[C@@H]23)c2c(C)cc(-c3cnc4cc(C)nn4c3)cc12` [Compound 16, (1R,3S,5R)-2-(2-(3-acetyl-7-methyl-5-(2-methylpyr-azolo[1,5-a]pyrimidin-6-yl)-1H-indol-1-yl)acetyl)-N-(5-fluoro-3-methyl-6-(trifluoromethyl)pyridin-2-yl)-5-methyl-2-azabicyclo [3.1.0]hexane-3-carbox-amide], greater than 6.00. As to `CC(=O)c1nn(CC(=O)N2[C@H](C(=O)Nc3nc(Br)c(F)cc3C)C[C@@]3(C)C[C@@H]23)c2c(C)cc(-c3cnc([C@H](C)O)nc3)cc12` [Compound 17, (1R,3S,5R)-2-(2-(3-acetyl-5-(2-((S)-1-hydroxyethyl)-pyrimidin-5-yl)-7-methyl-1H-indazol-1-yl)acetyl)-N-(6-bromo-5-fluoro-3-meth-ylpyridin-2-yl)-5-methyl-2-azabicyclo[3.1.0]hexane-3-carboxamide], the pIC50 was greater than 6.00. On to `CC(=O)c1nn(CC(=O)N2[C@H](C(=O)Nc3nc(Br)c(F)cc3C)C[C@@]3(C)C[C@@H]23)c2c(C)cc(-c3cnc([C@@H](C)O)nc3)cc12` [Compound 18, (1R,3S,5R)-2-(2-(3-acetyl-5-(2-((R)-1-hydroxyethyl)-pyrimidin-5-yl)-7-methyl-1H-indazol-1-yl)acetyl)-N-(6-bromo-5-fluoro-3-meth-ylpyridin-2-yl)-5-methyl-2-azabicyclo[3.1.0]hexane-3-carboxamide], for which the pIC50 was greater than 6.00.

Source of the values: US20250197403A1, “HETEROARYL COMPOUNDS FOR TREATMENT OF COMPLEMENT FACTOR D MEDIATED DISORDERS” (Achillion Pharmaceuticals, Inc., priority 2020, published 2025).
